Data as given in ChEMBL document CHEMBL5331071, “Structure-activity relationship study of amidobenzimidazole derivatives as stimulator of interferon genes (STING) agonists” (Eur J Med Chem, 2023).

Columns and labels:
[1] = target: T1, Stimulator of interferon genes protein (Homo sapiens, UniProt Q86WV6); test: Agonist activity at STING in human THP1-Dual cells incubated for 20 hrs by Quanti-luc reagent based assay; assay type: cell-based
THP1-Dual = test: Cytotoxicity against human THP1-Dual habouring STING assessed as inhibition of cell growth by MTS assay; assay type: functional, cell-based
[2] = target: T1, Stimulator of interferon genes protein; test: Agonist activity at STING in human […] KO-STING cells incubated for 20 hrs by Quanti-luc reagent based assay; assay type: cell-based, THP1-Dual KO-STING
[3] = Cytotoxicity against human THP1-Dual KO-STING cells assessed as inhibition of cell growth by MTS assay; assay type: functional, cell-based

T1 sequence (Q86WV6 whole entry): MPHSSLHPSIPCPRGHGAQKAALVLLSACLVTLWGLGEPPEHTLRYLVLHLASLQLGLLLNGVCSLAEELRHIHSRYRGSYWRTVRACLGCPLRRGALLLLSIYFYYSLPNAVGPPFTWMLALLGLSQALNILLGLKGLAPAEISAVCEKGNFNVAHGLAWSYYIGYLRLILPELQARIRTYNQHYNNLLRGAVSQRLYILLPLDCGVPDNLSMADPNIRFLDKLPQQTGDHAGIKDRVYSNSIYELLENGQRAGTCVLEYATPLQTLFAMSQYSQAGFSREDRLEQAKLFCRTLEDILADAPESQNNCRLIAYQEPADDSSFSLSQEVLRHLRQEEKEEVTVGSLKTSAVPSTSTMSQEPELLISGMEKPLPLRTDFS

SMILES	EC50 [1]	EC50 [2]	IC50 (THP1-Dual)	IC50 [3]
CCn1nc(C)cc1C(=O)Nc1nc2cc(C(N)=O)cc(OC)c2n1C/C=C/Cn1c(C)nc2cc(C(N)=O)ccc21	> 100 µM	> 100 µM	> 100 µM	> 100 µM
CCn1nc(C)cc1C(=O)Nc1nc2cc(C(N)=O)cc(OC)c2n1NCCCNC(=O)NCc1ccc2ccccc2c1	> 100 µM	> 100 µM	> 100 µM	> 100 µM
CCn1nc(C)cc1C(=O)Nc1nc2cc(C(N)=O)cc(OC)c2n1CCCNC(=O)c1ccccc1	> 100 µM	> 100 µM	> 100 µM	> 100 µM
CCn1nc(C)cc1C(=O)Nc1nc2cc(C(N)=O)cc(OCCCN3CCOCC3)c2n1NCCCNC(=O)c1ccc2ccccc2c1	2.19 µM	> 100 µM	18.6 µM	28.1 µM
CCn1nc(C)cc1C(=O)Nc1nc2cc(C(N)=O)cc(OC)c2n1C/C=C/CNC(=O)c1cnc2ccccc2c1	> 100 µM	> 100 µM	> 100 µM	> 100 µM
CCn1nc(C)cc1C(=O)Nc1nc2cc(C(N)=O)cc(OC)c2n1NCCCC(=O)NCc1cc(F)cc(F)c1	5.14 µM	> 100 µM	> 100 µM	> 100 µM
CCn1nc(C)cc1C(=O)Nc1nc2cc(C(N)=O)cc(OC)c2n1C/C=C/CNC(=O)NCc1ccccc1	> 100 µM	> 100 µM	> 100 µM	> 100 µM

More lines, main results first:

EC50 [1]	EC50 [2]	SMILES	IC50 (THP1-Dual)	IC50 [3]
> 100 µM	> 100 µM	CCn1nc(C)cc1C(=O)Nc1nc2cc(C(N)=O)cc(OC)c2n1C/C=C/CNC(=O)c1cc(F)nc(F)c1	> 100 µM	> 100 µM
> 100 µM	> 100 µM	CCn1nc(C)cc1C(=O)Nc1nc2cc(C(N)=O)cc(OC)c2n1C/C=C/CNC(=O)c1ccoc1	> 100 µM	> 100 µM
> 100 µM	> 100 µM	CCn1nc(C)cc1C(=O)Nc1nc2cc(C(N)=O)cc(OC)c2n1C/C=C/CNC(=O)c1ccccn1	> 100 µM	> 100 µM
> 100 µM	> 100 µM	CCn1nc(C)cc1C(=O)Nc1nc2cc(C(N)=O)cc(OC)c2n1C/C=C/CNC(=O)c1ccc(C(F)(F)F)cc1	> 100 µM	> 100 µM
